In patent publication US9113629B2, “4-amino-6-(4-substituted-phenyl)-picolinates and 6-amino-2-(4-substituted-phenyl)-pyrimidine-4-carboxylates and their use as herbicides” (DOW AGROSCIENCES LLC, priority 2013, dated 2015):
Read-outs that look alike come from different tables or passages of the source.

Legend:
[1] = test system: Key Broadleaf Weed and Crop Species; assay: Post-emergent Test II herbicidal activity (Table 5); assay type: in vivo; conditions: post-emergence, 336 h, 14 days after application; for pest or weed control at 70 g/ha: application rate 70 g ai/ha; for pest or weed control at 140 g/ha: application rate 140 g ai/ha
Procedure, shortened: (§1)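 Greenhouse-grown plants at first or second true leaf stage were sprayed post-emergence with compound in acetone/DMSO-based aqueous spray containing crop oil concentrate and surfactant, at 187 L/ha, highest rate plus ½× to 1/16× dilutions. After 14 d, injury was scored visually versus untreated plants, 0 (none) to 100% (complete kill).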

[2] = test system: Key Grass and Sedge Weeds as well as Grass Crops; assay: Post-emergent Test II herbicidal activity (Table 6); assay type: in vivo; conditions: post-emergence, 336 h; for pest or weed control at 70 g/ha: 70 g ai/ha; for pest or weed control at 140 g/ha: 140 g ai/ha
Procedure, shortened: as §1

[3] = ABUTH: velvetleaf (Abutilon theophrasti), read-out: Visual Growth Reduction (%) 14 Days After Application, ABUTH
[4] = AMARE: redroot pigweed (Amaranthus retroflexus), read-out: Visual Growth Reduction (%) 14 Days After Application, AMARE
[5] = BRSNN: oilseed-rape, canola (Brassica napus), read-out: Visual Growth Reduction (%) 14 Days After Application, BRSNN
[6] = CHEAL: lambsquarters (Chenopodium album), read-out: Visual Growth Reduction (%) 14 Days After Application, CHEAL
[7] = EPHHL: wild poinsettia (Euphorbia heterophylla), read-out: Visual Growth Reduction (%) 14 Days After Application, EPHHL
[8] = HELAN: sunflower (Helianthus annuus), read-out: Visual Growth Reduction (%) 14 Days After Application, HELAN
[9] = VIOTR: wild pansy (Viola tricolor), read-out: Visual Growth Reduction (%) 14 Days After Application, VIOTR
[10] = CYPES: yellow nutsedge (Cyperus esculentus), read-out: Visual Growth Reduction (%) 14 Days After Application, CYPES
[11] = DIGSA: crabgrass (Digitaria sanguinalis), read-out: Visual Growth Reduction (%) 14 Days After Application, DIGSA
[12] = ECHCG: barnyardgrass (Echinochloa crus-galli), read-out: Visual Growth Reduction (%) 14 Days After Application, ECHCG
[13] = ORYSA: rice (Oryza sativa), crop, read-out: Visual Growth Reduction (%) 14 Days After Application, ORYSA
[14] = SETFA: giant foxtail (Setaria faberi), read-out: Visual Growth Reduction (%) 14 Days After Application, SETFA
[15] = SORVU: grain sorghum (Sorghum vulgare), read-out: Visual Growth Reduction (%) 14 Days After Application, SORVU
[16] = TRZSS (wheat, Triticum aestivum), crop, read-out: Visual Growth Reduction (%) 14 Days After Application, TRZSS
[17] = ZEAMX: maize, corn (Zea mays), crop, read-out: Visual Growth Reduction (%) 14 Days After Application, ZEAMX

Nc1c(F)c(-c2ccc(C(F)(F)F)c(F)c2F)nc(C(=O)O)c1Cl [Compound 167]
melting point: 69 to 70 °C
pest or weed control at 70 g/ha [1, 3]: 85 to 94%
pest or weed control at 140 g/ha [1, 3]: 95 to 100%
pest or weed control at 70 g/ha [1, 4]: 95 to 100%
pest or weed control at 140 g/ha [1, 4]: 95 to 100%
pest or weed control at 70 g/ha [1, 5]: 95 to 100%
pest or weed control at 140 g/ha [1, 5]: 95 to 100%
pest or weed control at 70 g/ha [1, 6]: 95 to 100%
pest or weed control at 140 g/ha [1, 6]: 95 to 100%
pest or weed control at 70 g/ha [1, 7]: 95 to 100%
pest or weed control at 140 g/ha [1, 7]: 95 to 100%
pest or weed control at 70 g/ha [1, 8]: 95 to 100%
pest or weed control at 140 g/ha [1, 8]: 95 to 100%
pest or weed control at 70 g/ha [1, 9]: 95 to 100%
pest or weed control at 140 g/ha [1, 9]: 85 to 94%
pest or weed control at 70 g/ha [2, 10]: 85 to 94%
pest or weed control at 140 g/ha [2, 10]: 95 to 100%
pest or weed control at 70 g/ha [2, 11]: 75 to 84%
pest or weed control at 140 g/ha [2, 11]: 75 to 84%
pest or weed control at 70 g/ha [2, 12]: 95 to 100%
pest or weed control at 140 g/ha [2, 12]: 95 to 100%
pest or weed control at 70 g/ha [2, 13]: 0 to 29%
pest or weed control at 140 g/ha [2, 13]: 0 to 29%
pest or weed control at 70 g/ha [2, 14]: 85 to 94%
pest or weed control at 140 g/ha [2, 14]: 95 to 100%
pest or weed control at 70 g/ha [2, 15]: 85 to 94%
pest or weed control at 140 g/ha [2, 15]: 85 to 94%
pest or weed control at 70 g/ha [2, 16]: 60 to 74%
pest or weed control at 140 g/ha [2, 16]: 60 to 74%
pest or weed control at 70 g/ha [2, 17]: 75 to 84%
pest or weed control at 140 g/ha [2, 17]: 85 to 94%

Nc1cc(-c2ccc(C(F)(F)F)c(F)c2F)nc(C(=O)O)c1Cl [Compound 172, 4-amino-3-chloro-6-(2,3-difluoro-4-(trifluoromethyl)phenyl)picolinic acid]
melting point: 161 °C
pest or weed control at 70 g/ha [1, 3]: 95 to 100%
pest or weed control at 140 g/ha [1, 3]: 95 to 100%
pest or weed control at 70 g/ha [1, 4]: 95 to 100%
pest or weed control at 140 g/ha [1, 4]: 95 to 100%
pest or weed control at 70 g/ha [1, 5]: 75 to 84%
pest or weed control at 140 g/ha [1, 5]: 75 to 84%
pest or weed control at 70 g/ha [1, 6]: 85 to 94%
pest or weed control at 140 g/ha [1, 6]: 85 to 94%
pest or weed control at 70 g/ha [1, 7]: 95 to 100%
pest or weed control at 140 g/ha [1, 7]: 95 to 100%
pest or weed control at 70 g/ha [1, 8]: 95 to 100%
pest or weed control at 140 g/ha [1, 8]: 95 to 100%
pest or weed control at 70 g/ha [1, 9]: 45 to 59%
pest or weed control at 140 g/ha [1, 9]: 60 to 74%
pest or weed control at 70 g/ha [2, 10]: 95 to 100%
pest or weed control at 140 g/ha [2, 10]: 95 to 100%
pest or weed control at 70 g/ha [2, 11]: 75 to 84%
pest or weed control at 140 g/ha [2, 11]: 75 to 84%
pest or weed control at 70 g/ha [2, 12]: 95 to 100%
pest or weed control at 140 g/ha [2, 12]: 95 to 100%
pest or weed control at 70 g/ha [2, 13]: 0 to 29%
pest or weed control at 140 g/ha [2, 13]: 0 to 29%
pest or weed control at 70 g/ha [2, 14]: 95 to 100%
pest or weed control at 140 g/ha [2, 14]: 95 to 100%
pest or weed control at 70 g/ha [2, 15]: 75 to 84%
pest or weed control at 140 g/ha [2, 15]: 75 to 84%
pest or weed control at 70 g/ha [2, 16]: 45 to 59%
pest or weed control at 140 g/ha [2, 16]: 60 to 74%
pest or weed control at 70 g/ha [2, 17]: 95 to 100%
pest or weed control at 140 g/ha [2, 17]: 95 to 100%

C#Cc1ccc(-c2nc(C(=O)OC)c(Cl)c(N)c2F)cc1 [Compound 7, methyl 4-amino-3-chloro-6-(4-ethynylphenyl)-5-fluoropicolinate]
melting point: 127 to 130 °C
pest or weed control at 70 g/ha [1, 3]: 95 to 100%
pest or weed control at 140 g/ha [1, 3]: 95 to 100%
pest or weed control at 70 g/ha [1, 4]: 95 to 100%
pest or weed control at 140 g/ha [1, 4]: 95 to 100%
pest or weed control at 70 g/ha [1, 5]: 85 to 94%
pest or weed control at 140 g/ha [1, 5]: 85 to 94%
pest or weed control at 70 g/ha [1, 6]: 95 to 100%
pest or weed control at 140 g/ha [1, 6]: 95 to 100%
pest or weed control at 70 g/ha [1, 7]: 85 to 94%
pest or weed control at 140 g/ha [1, 7]: 95 to 100%
pest or weed control at 70 g/ha [1, 8]: 85 to 94%
pest or weed control at 140 g/ha [1, 8]: 95 to 100%
pest or weed control at 70 g/ha [1, 9]: 0 to 29%
pest or weed control at 140 g/ha [1, 9]: 0 to 29%
pest or weed control at 70 g/ha [2, 10]: 75 to 84%
pest or weed control at 140 g/ha [2, 10]: 85 to 94%
pest or weed control at 70 g/ha [2, 11]: 75 to 84%
pest or weed control at 140 g/ha [2, 11]: 85 to 94%
pest or weed control at 70 g/ha [2, 12]: 75 to 84%
pest or weed control at 140 g/ha [2, 12]: 95 to 100%
pest or weed control at 70 g/ha [2, 13]: 0 to 29%
pest or weed control at 140 g/ha [2, 13]: 0 to 29%
pest or weed control at 70 g/ha [2, 14]: 60 to 74%
pest or weed control at 140 g/ha [2, 14]: 95 to 100%
pest or weed control at 70 g/ha [2, 15]: 85 to 94%
pest or weed control at 140 g/ha [2, 15]: 85 to 94%
pest or weed control at 70 g/ha [2, 16]: 30 to 44%
pest or weed control at 140 g/ha [2, 16]: 45 to 59%
pest or weed control at 70 g/ha [2, 17]: 95 to 100%
pest or weed control at 140 g/ha [2, 17]: 95 to 100%
